Results as given in the supplement of paper PMC10307832.

Key:
Experiment in all cases: relative viability (nuclei count vs DMSO), 5 days (fraction); higher = more cells survive
AZD8055 + Bortezomib = compound: COc1ccc(-c2ccc3c(N4CCOC[C@@H]4C)nc(N4CCOC[C@@H]4C)nc3n2)cc1CO [AZD8055] + CC(C)C[C@H](NC(=O)[C@H](Cc1ccccc1)NC(=O)c1cnccn1)B(O)O [Bortezomib] (partner 0.002 µM)
Method in brief: (§1)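 Each reported value is a median over duplicate plates. It expresses relative viability: treated-well nuclei count divided by vehicle-well nuclei count. Lung cancer cell lines in 1536-well plates were dosed by pin tool a day after seeding, alone with one drug or with a fixed anchor-drug dose plus five library-drug doses (not always all listed) in √10 steps, and nuclei were counted after 5 days.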

AZD8055 + Lapatinib = compound: COc1ccc(-c2ccc3c(N4CCOC[C@@H]4C)nc(N4CCOC[C@@H]4C)nc3n2)cc1CO [AZD8055] + CS(=O)(=O)CCNCc1ccc(-c2ccc3ncnc(Nc4ccc(OCc5cccc(F)c5)c(Cl)c4)c3c2)o1 [Lapatinib] (partner 2 µM)
Method in brief: as §1

AZD8055 + AZD7762 = compound: COc1ccc(-c2ccc3c(N4CCOC[C@@H]4C)nc(N4CCOC[C@@H]4C)nc3n2)cc1CO [AZD8055] + NC(=O)Nc1cc(-c2cccc(F)c2)sc1C(=O)N[C@H]1CCCNC1 [AZD7762] (partner 0.2 µM)
Method in brief: as §1

AZD8055 + Decitabine = compound: COc1ccc(-c2ccc3c(N4CCOC[C@@H]4C)nc(N4CCOC[C@@H]4C)nc3n2)cc1CO [AZD8055] + Nc1ncn([C@H]2C[C@H](O)[C@@H](CO)O2)c(=O)n1 [Decitabine] (partner 2 µM)
Method in brief: as §1

Row | Cell Line | relative viability (AZD8055 + Bortezomib; first compound 0.01 µM) | relative viability (AZD8055 + Bortezomib; first compound 0.03162 µM) | relative viability (AZD8055 + Bortezomib; first compound 0.1 µM) | relative viability (AZD8055 + Bortezomib; first compound 0.3162 µM) | relative viability (AZD8055 + Bortezomib; first compound 1 µM) | relative viability (AZD8055 + Lapatinib; first compound 0.01 µM) | relative viability (AZD8055 + Lapatinib; first compound 0.03162 µM) | relative viability (AZD8055 + Lapatinib; first compound 0.1 µM) | relative viability (AZD8055 + Lapatinib; first compound 0.3162 µM) | relative viability (AZD8055 + Lapatinib; first compound 1 µM) | relative viability (AZD8055 + AZD7762; first compound 0.01 µM) | relative viability (AZD8055 + AZD7762; first compound 0.03162 µM) | relative viability (AZD8055 + AZD7762; first compound 0.1 µM) | relative viability (AZD8055 + AZD7762; first compound 0.3162 µM) | relative viability (AZD8055 + AZD7762; first compound 1 µM) | relative viability (AZD8055 + Decitabine; first compound 0.01 µM) | relative viability (AZD8055 + Decitabine; first compound 0.03162 µM) | relative viability (AZD8055 + Decitabine; first compound 0.1 µM) | relative viability (AZD8055 + Decitabine; first compound 0.3162 µM) | relative viability (AZD8055 + Decitabine; first compound 1 µM)
1 | 201T | 1.12 | 1.1 | 1.11 | 0.881 | 0.811 | 1.01 | 1.04 | 0.986 | 0.788 | 0.7 | 0.621 | 0.413 | 0.5 | 0.362 | 0.374 | 0.863 | 0.711 | 0.692 | 0.579 | 0.527
2 | A549 | – | – | – | – | – | 0.801 | 0.651 | 0.404 | 0.307 | 0.122 | – | – | – | – | – | 0.389 | 0.101 | 0.184 | 0.13 | 0.101
3 | A-427 | 1.01 | 0.815 | 0.858 | 0.518 | 0.462 | 1.12 | 1.03 | 0.865 | 0.665 | 0.546 | 0.762 | 0.597 | 0.529 | 0.5 | 0.427 | 0.552 | 0.491 | 0.494 | 0.415 | 0.389
4 | ABC-1 | 0.3 | 0.287 | 0.366 | 0.284 | 0.329 | 1.2 | 0.939 | 1.2 | 0.652 | 0.611 | 0.879 | 0.766 | 1.02 | 0.406 | 0.495 | 1.16 | 1.51 | 0.825 | 0.697 | 0.576
5 | BEN | 0.663 | 0.472 | 0.428 | 0.365 | 0.262 | 0.607 | 0.402 | 0.353 | 0.317 | 0.304 | 0.684 | 0.408 | 0.41 | 0.403 | 0.357 | 0.691 | 0.63 | 0.435 | 0.49 | 0.453
6 | CAL-12T | 1.21 | 0.955 | 0.521 | 0.298 | 0.316 | 0.67 | 0.601 | 0.369 | 0.37 | 0.343 | 0.695 | 0.8 | 0.733 | 0.421 | 0.339 | – | – | – | – | –
7 | COR-L23 | 1.2 | 0.834 | 0.779 | 0.236 | 0.168 | 1.36 | 0.804 | 0.741 | 0.33 | 0.219 | – | – | – | – | – | 0.401 | 0.298 | 0.305 | 0.209 | 0.191
8 | COR-L 105 | 0.997 | 0.879 | 0.565 | 0.309 | 0.373 | 0.353 | 0.284 | 0.318 | 0.346 | 0.389 | – | – | – | – | – | 0.718 | 0.714 | 0.579 | 0.445 | 0.431
9 | Calu-6 | 1.04 | 0.917 | 0.824 | 0.489 | 0.457 | 1.22 | 0.926 | 0.816 | 0.718 | 0.485 | – | – | – | – | – | – | – | – | – | –
10 | ChaGo-K-1 | 1.03 | 1.12 | 1.09 | 0.87 | 0.647 | – | – | – | – | – | 0.957 | 0.832 | 0.828 | 0.703 | 0.645 | 0.506 | 0.425 | 0.528 | 0.494 | 0.441
11 | EKVX | 0.942 | 1 | 0.832 | 0.499 | 0.356 | 0.193 | 0.181 | 0.155 | 0.132 | 0.132 | 0.783 | 0.594 | 0.605 | 0.375 | 0.29 | 0.361 | 0.286 | 0.298 | 0.251 | 0.26
12 | IA-LM | 0.706 | 0.363 | 0.114 | 0.106 | 0.0977 | 0.802 | 0.319 | 0.216 | 0.132 | 0.112 | – | – | – | – | – | – | – | – | – | –
13 | LCLC-103H | 1.15 | 0.934 | 0.93 | 0.745 | 0.673 | – | – | – | – | – | 0.739 | 0.608 | 0.592 | 0.343 | 0.371 | 0.767 | 0.616 | 0.532 | 0.417 | 0.374
14 | LK-2 | – | – | – | – | – | 0.801 | 0.55 | 0.47 | 0.198 | 0.17 | 0.285 | 0.204 | 0.205 | 0.104 | 0.135 | 0.273 | 0.19 | 0.156 | 0.146 | 0.144
15 | NCI-H358 | – | – | – | – | – | 0.444 | 0.41 | 0.394 | 0.254 | 0.246 | 0.701 | 0.557 | 0.523 | 0.308 | 0.203 | 0.22 | 0.24 | 0.177 | 0.134 | 0.113
16 | NCI-H441 | 0.502 | 0.577 | 0.396 | 0.168 | 0.186 | – | – | – | – | – | 1.24 | 1.14 | 0.837 | 0.562 | 0.382 | 0.284 | 0.233 | 0.225 | 0.206 | 0.246
